Results on four molecules are retold here after patent US6436631B1, “Comparative phenotype analysis for assessment of biologically active compounds such as antimicrobials” (priority 2000, dated 2002).

Assay [1] has as its system Saccharomyces cerevisiae (BY4741). Put plainly: EA MicroPlate nutrient stimulation test without methionine (iodo-nitro-tetrazolium violet reduction). The following applies: 30° C., 2 days, visual. The class given is cell-based. How it is done:
In this Example, the response of a yeast to various compounds was tested. The yeast used in these experiments was Saccharomyces cerevisiae (BY4741, obtained from Dr. Mark Johnston, Washington University, St. Louis, Mo.). The genotype of this strain was indicated as being Mat a (i.e., mating type “a”), ura-, his-, leu-, and met-. In these experiments, the ability of this strain to grow in a culture medium without methionine was investigated. Methionine interferes with the ability to test this organism for its utilization of other potential sulfur sources (i.e., if methionine is added to a culture medium the organism preferentially uses it as a sulfur source). The yeast was grown for 48 hours at 30° C. on R2A agar medium (Acumedia). Cells were removed from the agar surface with a sterile cotton swab and suspended at a cell density of 65% transmittance (as read using a BiologTM turbidimeter) in an inoculating fluid containing 50 mM glucose, 0.15 mM uracil, 0.15 mM L-histidine, 0.15 mM L-leucine, 0.15 mM MgCl2, 1.0 mM CaCl2, 2.0 mM NaCl, 1.0 mM KCl, 3.0 mM NH4Cl, 1.0 mM NaH2PO4, 0.1 mM Na2SO4, 0.01% iodo-nitro-tetrazolium violet, 0.01% phytagel (gellan gum), 0.03% pluronic F-68; the pH was adjusted to 6.0. The cell suspension (100 μl/well) was then used to inoculate a BiologTM EA MicroPlateTM, which tests the ability of a cell to be stimulated by a set of 95 different nutrients. The nutrients included within the microarray were: […] One well (A-1) contains no nutrients and is used as a reference (i.e., control) well. After inoculation, the microarray was incubated at 30° C. for 2 days and visually observed.

Assay [2] has as its system vancomycin-intermediate S. aureus isolates (VISA). The following applies: VISA isolates identified since 1996 in Europe, Asia and the U.S.; cited from earlier work.
In the next assay the test system is E. coli (MG1655). Put plainly: BAC combination (synergy/antagonism) testing in ES1, ES2 and ES3 MicroPlate sensitivity panels, tetrazolium violet. Conditions: in the presence of 10 μg/ml vancomycin; vancomycin wells at 10, 20, 40 and 80 μg/ml. It is filed as cell-based. How it is done: In this Example, the susceptibility of E. coli (MG1655) was tested in the presence of vancomycin (10 μg/ml) or sulfamethoxazole (235 μg/ml) in microarrays containing various additional compounds. The microarrays were present in three Biolog™ sensitivity test panels, referred to as ES1, ES2 and ES3 MicroPlates™. The organisms were added to a sterile aqueous suspension containing 0.40% NaCl, 0.03% pluronic F68, 0.01% phytagel, and 0.01% tetrazolium violet, to a cell density of 85% transmittance (as measured using a BiologTm turbidimeter). The BAC to be tested was added to the suspension just prior to inoculating the organisms (100 μl/well) into the wells of the microarrays. The wells of these ES MicroPlates™ contained a basal broth medium consisting of tryptone (2 g/L), yeast extract (1 g/L), and NaCl (1 g/L). […]

With `CSCC[C@H](N)C(=O)O` [L-methionine], the “stimulation of growth/respiration (pink color) in medium without methionine” value in assay [1] (L-methionine well (25 μM)) is “increased pink color”.
As for `N[C@@H](CCC(=O)N[C@@H](CS)C(=O)NCC(=O)O)C(=O)O` [glutathione], the “stimulation of growth/respiration (pink color) in medium without methionine” value in assay [1] (glutathione well (reduced form; 100 μM)) was “increased pink color”.
As for `Cc1ncc(CO)c(CO)c1O` [pyridoxine], in assay [1] (pyridoxine well (0.25 μM)), the “stimulation of growth/respiration (pink color) in medium without methionine” value is reported as “increased pink color”.
In the case of `CN[C@H](CC(C)C)C(=O)N[C@H]1C(=O)N[C@@H](CC(N)=O)C(=O)N[C@H]2C(=O)N[C@H]3C(=O)N[C@H](C(=O)N[C@H](C(=O)O)c4cc(O)cc(O)c4-c4cc3ccc4O)[C@H](O)c3ccc(c(Cl)c3)Oc3cc2cc(c3O[C@@H]2O[C@H](CO)[C@@H](O)[C@H](O)[C@H]2O[C@H]2C[C@](C)(N)[C@H](O)[C@H](C)O2)Oc2ccc(cc2Cl)[C@H]1O` [vancomycin], in assay [2], the “vancomycin minimum inhibitory concentration [MIC]” value was 8 to 16 µg/mL. Besides, the “change of sensitivity of E. coli strain to panel compound” value with E. coli (MG1655) is given as “transient increased sensitivity”.
